Calls of active or inactive are those of the source. The rule behind the calls is not given here.
How the values were obtained:
[1] = Acute toxicity in po dosed Sprague-Dawley rat assessed as mortality rate measured after 24 hrs; assay type: organism-based; conditions: in vivo
[2] = target: Transporter (Rattus norvegicus, UniProt Q63380); assay: Displacement of [3H]-nisoxetine from NET in rat hippocampal membrane incubated for 8 hrs by liquid scintillation counting method; assay type: cell membranes, Hippocampus
[3] = target: 5-hydroxytryptamine receptor 2A (Rattus norvegicus, UniProt P14842); assay: Displacement of [3H]-ketanserin from 5-HT2A in rat cerebral cortex incubated for 15 mins by liquid scintillation counting method; assay type: tissue-based
[4] = target: T1, 5-hydroxytryptamine receptor 2C (Rattus norvegicus, UniProt P08909); assay: Displacement of [3H]-mesulergine from 5-HT2C in rat cerebral cortex incubated for 15 mins by liquid scintillation counting method; assay type: tissue-based
T1 sequence (P08909 whole entry): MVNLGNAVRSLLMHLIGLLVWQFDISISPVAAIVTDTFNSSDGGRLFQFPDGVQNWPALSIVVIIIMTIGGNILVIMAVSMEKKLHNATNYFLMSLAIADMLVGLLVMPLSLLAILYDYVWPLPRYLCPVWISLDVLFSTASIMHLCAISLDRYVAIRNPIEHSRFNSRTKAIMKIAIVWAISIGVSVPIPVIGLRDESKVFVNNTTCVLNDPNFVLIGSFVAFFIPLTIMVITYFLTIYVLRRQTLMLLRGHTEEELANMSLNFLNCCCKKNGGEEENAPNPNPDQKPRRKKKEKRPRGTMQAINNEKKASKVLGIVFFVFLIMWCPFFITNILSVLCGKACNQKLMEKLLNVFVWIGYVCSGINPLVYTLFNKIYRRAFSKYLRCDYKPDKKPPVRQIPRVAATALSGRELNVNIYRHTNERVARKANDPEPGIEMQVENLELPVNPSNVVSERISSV

[5] = system: histamine H1 receptor; assay: Displacement of [3H]-pyrilamine from H1 receptor in guinea pig cerebellum membrane incubated for 60 mins by liquid scintillation counting method; assay type: toxicity, cell membranes, Cavia porcellus; conditions: probe [3H]-pyrilamine
[6] = target: Voltage-gated inwardly rectifying potassium channel KCNH2 (Homo sapiens, UniProt Q12809); assay: Inhibition of human ERG expressed in HEK293 cells by whole-cell patch clamp method; assay type: toxicity, cell-based
[7] = target: 5-hydroxytryptamine receptor 2A (Homo sapiens, UniProt P28223); assay: Agonist activity at 5-HT2A in HEK293 cells at 10 uM incubated for 60 mins by FLIPR assay relative to control; assay type: functional, cell-based; conditions: filed as agonist
[8] = target: T2, 5-hydroxytryptamine receptor 2C (Homo sapiens) (UniProt P28335); assay: Agonist activity at 5-HT2C in HEK293 cells at 10 uM incubated for 60 mins by FLIPR assay relative to control; assay type: functional, cell-based; conditions: filed as agonist
T2 sequence (whole entry): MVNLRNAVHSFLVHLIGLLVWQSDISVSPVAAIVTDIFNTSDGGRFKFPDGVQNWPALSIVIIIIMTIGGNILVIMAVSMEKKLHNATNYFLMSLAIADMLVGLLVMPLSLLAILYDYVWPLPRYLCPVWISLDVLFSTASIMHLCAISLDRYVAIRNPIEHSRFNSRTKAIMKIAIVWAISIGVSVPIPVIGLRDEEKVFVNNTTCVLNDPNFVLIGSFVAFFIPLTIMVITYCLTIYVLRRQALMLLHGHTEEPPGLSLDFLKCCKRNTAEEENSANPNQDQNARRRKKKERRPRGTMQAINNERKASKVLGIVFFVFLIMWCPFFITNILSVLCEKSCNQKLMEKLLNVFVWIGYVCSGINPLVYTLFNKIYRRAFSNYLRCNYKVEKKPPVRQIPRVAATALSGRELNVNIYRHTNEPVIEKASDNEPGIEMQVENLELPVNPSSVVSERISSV

[9] = target: T2, 5-hydroxytryptamine receptor 2C (Homo sapiens); assay: Antagonist activity at 5-HT2C in HEK293 cells at 10 uM incubated for 60 mins by FLIPR assay relative to control; assay type: cell-based; design: scale not given: the % may be the effect or the level left; conditions: filed as antagonist
[10] = system: Mus musculus; assay: Antidepressant activity in Kunming mouse assessed as effect on spontaneous locomotor activity by measuring total travel distance at 7.5 to 60 mg/kg, po administered for 60 mins and measured for 15 mins; assay type: functional, organism-based; conditions: dose lower […], dose upper 60.0 mg/kg
[11] = (§1) In vivo inhibition of 5-HT2A in po dosed DOI-induced Kunming mouse assessed as reduction in head twitch response pretreated for 60 mins followed by DOI induction and measured for 20 mins; assay type: functional; conditions: 1.333 h, time 80 min
[12] = system: Mus musculus; assay: as §1; assay type: functional; conditions: time 80.0 min
[13] = system: Rattus norvegicus; assay: Antidepressant activity against ig dosed ACTH-induced treatment resistant depression in Sprague-Dawley rat model assessed as reduction in immobility time by forced swimming test; assay type: functional; conditions: po
[14] = target: D(1A) dopamine receptor (Homo sapiens, UniProt P21728); assay: Binding affinity to D1 receptor (unknown origin)
[15] = target: D(2) dopamine receptor (Homo sapiens, UniProt P14416); assay: Binding affinity to D2 receptor (unknown origin)
[16] = target: D(3) dopamine receptor (Homo sapiens, UniProt P35462); assay: Binding affinity to D3 receptor (unknown origin)
[17] = target: Histamine H2 receptor (Homo sapiens, UniProt P25021); assay: Binding affinity to H2 receptor (unknown origin)
[18] = target: Histamine H3 receptor (Homo sapiens, UniProt Q9Y5N1); assay: Binding affinity to H3 receptor (unknown origin)
[19] = target: Histamine H4 receptor (Homo sapiens, UniProt Q9H3N8); assay: Binding affinity to H4 receptor (unknown origin)
[20] = target: Muscarinic acetylcholine receptor M5 (Homo sapiens, UniProt P08912); assay: Binding affinity to M5 receptor (unknown origin)
[21] = target: Glutamate [NMDA] receptor; assay: Binding affinity to NMDA receptor (unknown origin); assay type: protein-complex assay, Homo sapiens
[22] = Cmax in CD1 mouse at 2 mg/kg, iv measured upto 10 hrs by LC-MS analysis; assay type: ADME, organism-based; conditions: in vivo
[23] = Tmax in CD1 mouse at 15 mg/kg, po measured upto 24 hrs by LC-MS analysis; assay type: ADME, organism-based; conditions: in vivo
[24] = AUC(0 to infinity) in CD1 mouse at 2 mg/kg, iv measured upto 10 hrs by LC-MS analysis; assay type: ADME, organism-based; conditions: in vivo

Histamine H2 receptor, sequence (P25021 whole entry): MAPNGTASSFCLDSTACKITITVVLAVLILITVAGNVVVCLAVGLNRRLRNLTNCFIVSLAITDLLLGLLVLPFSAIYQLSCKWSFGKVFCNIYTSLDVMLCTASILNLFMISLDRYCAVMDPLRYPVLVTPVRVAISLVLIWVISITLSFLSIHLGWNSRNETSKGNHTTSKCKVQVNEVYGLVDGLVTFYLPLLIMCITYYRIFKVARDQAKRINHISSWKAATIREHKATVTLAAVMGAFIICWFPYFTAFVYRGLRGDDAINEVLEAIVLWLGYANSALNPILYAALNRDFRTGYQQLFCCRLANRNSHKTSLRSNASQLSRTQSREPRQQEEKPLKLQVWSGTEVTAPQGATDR
5-hydroxytryptamine receptor 2A (Homo sapiens, UniProt P28223), sequence (P28223 whole entry): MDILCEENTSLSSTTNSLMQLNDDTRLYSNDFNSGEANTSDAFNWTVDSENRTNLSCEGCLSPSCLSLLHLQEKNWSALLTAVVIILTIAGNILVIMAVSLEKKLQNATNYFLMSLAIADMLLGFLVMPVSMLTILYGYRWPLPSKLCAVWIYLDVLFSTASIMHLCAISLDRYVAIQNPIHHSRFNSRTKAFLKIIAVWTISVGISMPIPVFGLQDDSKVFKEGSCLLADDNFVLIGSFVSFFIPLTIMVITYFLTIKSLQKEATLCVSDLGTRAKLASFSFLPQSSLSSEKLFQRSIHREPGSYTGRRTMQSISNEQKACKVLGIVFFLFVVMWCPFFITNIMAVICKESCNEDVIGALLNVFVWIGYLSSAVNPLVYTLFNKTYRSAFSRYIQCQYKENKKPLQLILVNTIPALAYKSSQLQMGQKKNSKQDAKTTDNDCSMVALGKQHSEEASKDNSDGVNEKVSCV
Muscarinic acetylcholine receptor M5, sequence (P08912 whole entry): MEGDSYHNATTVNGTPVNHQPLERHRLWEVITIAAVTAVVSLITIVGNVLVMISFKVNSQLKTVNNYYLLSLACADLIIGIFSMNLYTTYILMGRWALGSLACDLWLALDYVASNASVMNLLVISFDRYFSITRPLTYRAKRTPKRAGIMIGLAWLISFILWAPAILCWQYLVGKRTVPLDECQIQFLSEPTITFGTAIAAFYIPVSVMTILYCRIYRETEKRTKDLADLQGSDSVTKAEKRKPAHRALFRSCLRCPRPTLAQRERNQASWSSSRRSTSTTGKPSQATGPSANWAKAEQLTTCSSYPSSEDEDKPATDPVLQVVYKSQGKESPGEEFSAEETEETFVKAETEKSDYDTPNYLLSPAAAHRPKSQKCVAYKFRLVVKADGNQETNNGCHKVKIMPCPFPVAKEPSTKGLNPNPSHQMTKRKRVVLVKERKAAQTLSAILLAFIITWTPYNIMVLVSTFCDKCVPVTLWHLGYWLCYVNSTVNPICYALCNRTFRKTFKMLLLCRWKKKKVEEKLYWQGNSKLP
D(1A) dopamine receptor, sequence (P21728 whole entry): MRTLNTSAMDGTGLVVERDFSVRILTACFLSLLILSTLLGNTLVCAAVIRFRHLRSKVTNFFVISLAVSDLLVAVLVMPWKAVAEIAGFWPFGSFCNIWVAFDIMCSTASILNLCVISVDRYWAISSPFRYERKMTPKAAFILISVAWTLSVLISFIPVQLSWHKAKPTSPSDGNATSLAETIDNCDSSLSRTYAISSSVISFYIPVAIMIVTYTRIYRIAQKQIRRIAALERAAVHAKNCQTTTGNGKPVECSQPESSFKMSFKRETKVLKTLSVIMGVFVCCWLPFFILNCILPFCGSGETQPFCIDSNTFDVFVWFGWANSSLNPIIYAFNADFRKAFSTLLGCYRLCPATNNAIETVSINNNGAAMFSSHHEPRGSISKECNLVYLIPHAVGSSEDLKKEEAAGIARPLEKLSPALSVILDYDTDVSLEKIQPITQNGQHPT
Transporter, sequence (Q63380 whole entry): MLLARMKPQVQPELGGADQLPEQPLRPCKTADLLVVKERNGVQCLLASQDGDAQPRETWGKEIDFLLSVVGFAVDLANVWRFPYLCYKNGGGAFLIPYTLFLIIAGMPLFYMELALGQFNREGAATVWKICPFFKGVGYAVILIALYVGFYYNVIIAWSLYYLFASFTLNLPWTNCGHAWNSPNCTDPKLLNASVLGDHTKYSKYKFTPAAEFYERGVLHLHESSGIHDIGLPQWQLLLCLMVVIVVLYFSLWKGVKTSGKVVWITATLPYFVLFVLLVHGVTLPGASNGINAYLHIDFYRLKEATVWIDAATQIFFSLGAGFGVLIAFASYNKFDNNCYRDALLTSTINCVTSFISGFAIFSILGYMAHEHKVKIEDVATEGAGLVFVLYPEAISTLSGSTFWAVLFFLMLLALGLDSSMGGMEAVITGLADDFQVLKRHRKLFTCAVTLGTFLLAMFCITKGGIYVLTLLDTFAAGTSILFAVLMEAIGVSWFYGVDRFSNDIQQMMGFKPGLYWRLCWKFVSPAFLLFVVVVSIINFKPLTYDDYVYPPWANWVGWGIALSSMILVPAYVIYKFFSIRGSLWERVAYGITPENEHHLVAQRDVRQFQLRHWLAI
Histamine H4 receptor, sequence (Q9H3N8 whole entry): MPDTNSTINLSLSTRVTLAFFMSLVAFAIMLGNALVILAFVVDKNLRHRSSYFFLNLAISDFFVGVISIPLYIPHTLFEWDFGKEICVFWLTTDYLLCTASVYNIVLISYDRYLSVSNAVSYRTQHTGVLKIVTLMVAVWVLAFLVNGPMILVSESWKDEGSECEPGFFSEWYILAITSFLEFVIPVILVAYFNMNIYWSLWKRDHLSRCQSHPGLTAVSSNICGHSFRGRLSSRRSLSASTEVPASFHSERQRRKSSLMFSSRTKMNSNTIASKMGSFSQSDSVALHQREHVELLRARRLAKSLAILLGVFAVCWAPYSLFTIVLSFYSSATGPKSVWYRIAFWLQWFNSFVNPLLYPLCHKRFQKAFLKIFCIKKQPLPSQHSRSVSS
Histamine H3 receptor, sequence (Q9Y5N1 whole entry): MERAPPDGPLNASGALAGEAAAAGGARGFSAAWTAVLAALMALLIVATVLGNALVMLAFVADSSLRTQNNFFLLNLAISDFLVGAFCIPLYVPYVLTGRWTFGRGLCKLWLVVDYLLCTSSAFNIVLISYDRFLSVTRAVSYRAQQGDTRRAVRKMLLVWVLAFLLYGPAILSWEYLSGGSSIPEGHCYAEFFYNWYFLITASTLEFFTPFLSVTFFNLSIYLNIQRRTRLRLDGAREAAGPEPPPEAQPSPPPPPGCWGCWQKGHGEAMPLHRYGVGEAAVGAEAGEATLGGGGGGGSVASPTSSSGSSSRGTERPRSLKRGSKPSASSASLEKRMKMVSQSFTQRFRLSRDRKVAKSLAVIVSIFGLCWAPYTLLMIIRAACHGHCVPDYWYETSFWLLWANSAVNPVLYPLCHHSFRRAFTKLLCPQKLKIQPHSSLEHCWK
D(2) dopamine receptor, sequence (P14416 whole entry): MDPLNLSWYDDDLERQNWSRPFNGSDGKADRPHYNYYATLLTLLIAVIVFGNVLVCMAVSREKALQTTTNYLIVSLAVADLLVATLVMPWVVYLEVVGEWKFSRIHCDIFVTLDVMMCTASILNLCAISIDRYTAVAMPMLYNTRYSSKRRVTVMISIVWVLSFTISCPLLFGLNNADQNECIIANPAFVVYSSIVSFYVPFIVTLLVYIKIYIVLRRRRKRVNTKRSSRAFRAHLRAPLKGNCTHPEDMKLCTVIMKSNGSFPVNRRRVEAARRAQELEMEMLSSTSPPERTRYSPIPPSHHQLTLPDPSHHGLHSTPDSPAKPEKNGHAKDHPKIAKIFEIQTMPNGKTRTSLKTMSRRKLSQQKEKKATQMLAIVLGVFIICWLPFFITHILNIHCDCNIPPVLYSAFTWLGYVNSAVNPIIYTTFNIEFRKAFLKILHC
Voltage-gated inwardly rectifying potassium channel KCNH2, sequence (Q12809 whole entry): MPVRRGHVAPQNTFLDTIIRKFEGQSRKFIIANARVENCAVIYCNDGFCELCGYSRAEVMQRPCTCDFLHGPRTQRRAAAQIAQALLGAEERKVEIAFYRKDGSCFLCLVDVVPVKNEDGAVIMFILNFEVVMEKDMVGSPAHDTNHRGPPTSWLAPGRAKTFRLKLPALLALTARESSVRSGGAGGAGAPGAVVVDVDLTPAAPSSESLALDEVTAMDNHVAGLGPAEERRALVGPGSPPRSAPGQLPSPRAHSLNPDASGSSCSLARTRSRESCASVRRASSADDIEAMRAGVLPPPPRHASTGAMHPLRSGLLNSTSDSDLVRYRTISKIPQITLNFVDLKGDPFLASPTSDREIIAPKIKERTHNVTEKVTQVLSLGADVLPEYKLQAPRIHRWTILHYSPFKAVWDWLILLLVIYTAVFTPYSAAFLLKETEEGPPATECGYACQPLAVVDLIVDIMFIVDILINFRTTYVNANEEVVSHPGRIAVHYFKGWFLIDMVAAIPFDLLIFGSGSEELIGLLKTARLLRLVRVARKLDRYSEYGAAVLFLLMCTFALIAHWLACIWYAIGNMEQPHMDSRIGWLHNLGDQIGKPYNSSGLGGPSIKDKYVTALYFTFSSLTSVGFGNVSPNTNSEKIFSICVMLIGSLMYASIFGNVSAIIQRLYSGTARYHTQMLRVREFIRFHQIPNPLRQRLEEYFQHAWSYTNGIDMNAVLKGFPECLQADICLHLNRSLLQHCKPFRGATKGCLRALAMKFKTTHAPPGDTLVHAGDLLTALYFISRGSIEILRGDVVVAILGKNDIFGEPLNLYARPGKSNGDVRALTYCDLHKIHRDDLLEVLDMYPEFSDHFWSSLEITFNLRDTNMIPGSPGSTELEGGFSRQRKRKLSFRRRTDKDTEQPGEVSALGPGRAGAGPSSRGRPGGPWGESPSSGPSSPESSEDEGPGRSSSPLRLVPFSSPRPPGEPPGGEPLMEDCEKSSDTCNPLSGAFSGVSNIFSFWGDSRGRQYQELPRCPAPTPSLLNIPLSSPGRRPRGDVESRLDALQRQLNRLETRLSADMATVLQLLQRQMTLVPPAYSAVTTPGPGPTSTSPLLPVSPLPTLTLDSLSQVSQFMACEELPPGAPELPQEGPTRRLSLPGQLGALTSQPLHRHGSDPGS

Question: Which LD50 at 24 h [1] does the source give for `CN(C)CC[C@@H](Oc1cccc2c1OCO2)c1ccc(F)cc1.O=C(O)C(=O)O` here?
Answer: 560 mg/kg

Question: And the Ki [2]?
Answer: 0.0023 µM

Question: And the Ki [3]?
Answer: 0.0264 µM

Question: And the Ki [4]?
Answer: 0.0157 µM

Question: What about the Ki at 60 min [5] of the same molecule?
Answer: 1 µM

Question: What about the IC50 [6] of the same molecule?
Answer: 1.23 µM

Question: What about the Activity [7] of the same molecule?
Answer: 103%

Question: What about the Activity [8] of the same molecule?
Answer: 18.1%

Question: And the Activity [9]?
Answer: 99.1%

Question: What about the Activity [10] of the same molecule?
Answer: inactive

Question: And the ED50 [11]?
Answer: 1.07 mg/kg

Question: What about the Activity [12] of the same molecule?
Answer: Dose-dependent-effect

Question: What about the ED50 [13] of the same molecule?
Answer: 23.1 mg/kg

Question: What about the Ki [14] of the same molecule?
Answer: > 1 µM

Question: What about the Ki [15] of the same molecule?
Answer: > 1 µM

Question: And the Ki [16]?
Answer: > 1 µM

Question: And the Ki [17]?
Answer: > 1 µM

Question: What about the Ki [18] of the same molecule?
Answer: > 1 µM

Question: And the Ki [19]?
Answer: > 1 µM

Question: What about the Ki [20] of the same molecule?
Answer: > 1 µM

Question: And the Ki [21]?
Answer: > 1 µM

Question: What about the Cmax [22] of the same molecule?
Answer: 420 ng/mL

Question: And the Tmax [23]?
Answer: 30 min

Question: What about the AUC(0-inf) [24] of the same molecule?
Answer: 310 ng·h/mL

Source: ChEMBL document CHEMBL6083240, “Design, synthesis and biological evaluation of arylpropylamine derivatives as potential multi-target antidepressants” (Bioorg Med Chem, 2024)
